Data on 122 compounds can be found in a melting point compilation (Tetko et al.).

The melting point is the temperature of the solid-liquid transition.

`O=C(CCl)Nc1ccc2[nH]c(C(F)(F)F)nc2c1`: the melting point was 217 to 219 °C.
In the case of `O=S(=O)(Nc1ccccc1Br)N1CCOCC1`, the melting point fell in the range of 81 to 83 °C.
The same measure for `NNC(=O)c1sc2cc(F)ccc2c1Cl`: 239 to 241 °C; for `CC(NC(=O)OC(C)(C)C)c1ccc(-c2cccc(C#N)c2)cc1` (configuration not stated): 103 to 105 °C; for `CC(C)(C)c1ccc2oc(N)nc2c1`: 146 to 148 °C.
The same measure for `CC(C)Nc1ccc(C#N)cn1`: 99 to 101 °C; for `O=C(O)CCC(=O)N1CC(=O)Nc2ccccc21`: 181 to 183 °C.
`Nc1nnc(Cc2ccccc2Cl)o1` showed a melting point of 196 to 198 °C.
The value for `Cc1ccccc1Nc1nnc(S)s1` was 230 to 232 °C.
`O=C(O)CCCOc1ccc(S(=O)(=O)Cl)cc1F` displayed a melting point of 112 to 114 °C.
The value for `NC(Cn1ccccc1=O)=NO` was 211 to 213 °C; that for `Clc1nnc(Cl)c(Cl)n1` was 56 to 58 °C; that for `CCCS(=O)(=O)N1CCC(N)CC1` was 49 to 51 °C.
In turn, `O=C(O)c1c(F)ccc([N+](=O)[O-])c1F` gave a melting point of 92 to 96 °C.
The same measure for `Cc1ccsc1-c1nnc(S)o1`: 211 to 213 °C.
As for `CSc1nc(C)cc(C(=O)O)n1`, the melting point was in the range of 152 to 154 °C.
The compound `ClC(Cl)(Cl)C(c1ccc(Br)cc1)c1ccc(Br)cc1` yielded a melting point of 144 to 146 °C.
The same measure for `CC(Cl)C1CC(c2ccccc2)=NO1` (configuration not stated): 59 to 61 °C.
The same measure for `NS(=O)(=O)c1cccc(NC(=O)CCl)c1`: 162 to 171 °C.
In the case of `CNC(=O)c1ccc([N+](=O)[O-])cc1Cl`, the melting point lay within 166 to 168 °C.
`Nc1ccc(Nc2ccc(F)cc2)c2ccncc12` gave a melting point of 153 to 155 °C.
`Nc1cc(C(=O)O)ccc1NCCCN1CCOCC1` gave a melting point of 216 to 218 °C.
The value for `ClCc1nc(-c2ccc3c(c2)OCO3)no1` was 50 to 52 °C; that for `COC(=O)C1Cc2ccccc2CN1C(=O)CCl` (configuration not stated) was 85 to 87 °C; that for `O=c1[nH]cnc2ncccc12` was 249 to 251 °C.
On to `Nc1cc(C(=O)N2CCCCC2)ccc1Cl`, for which the melting point lay in the range of 135 to 137 °C.
The value for `CC(C)=CCOc1cccc(C(=O)O)c1` was 86 to 88 °C; that for `Cc1cc(CCC(=O)O)ccc1Br` was 89 to 91 °C; that for `O=C(O)c1cccc(NC(=O)c2cccnc2)c1` was 304 to 306 °C.
Compound `Cc1cccc(CNC(=O)CCl)c1` displayed a melting point of 71 to 73 °C.
Compound `Cn1ccnc1Sc1ccc(F)cc1N` had a melting point of 136 to 138 °C.
The compound `Cn1c(C(F)(F)F)nc2cc(C(=O)O)ccc21` gave a melting point of 254 to 256 °C.
The same measure for `COC(=O)c1cc(S(=O)(=O)Cl)c(Cl)cc1Cl`: 110 to 112 °C; for `O=c1cnc2ccccc2n1CCS(=O)(=O)F`: 145 to 147 °C.
The value for `O=[N+]([O-])c1ccc(NC2CCOc3ccccc32)cc1` (configuration not stated) was 124 to 126 °C; that for `NC(Cc1ccccc1)(C(=O)O)c1ccccc1` (configuration not stated) was 264 to 266 °C; that for `O=C1CC(c2ccccc2)CN1` (configuration not stated) was 70 to 72 °C.
Consider `Cc1nnc2c(Cl)cccn12`, for which the melting point was 163 to 165 °C.
The value for `NS(=O)(=O)c1cn[nH]c1` was 200 to 202 °C; that for `O=C(O)c1cc(C2CC2)nc2onc(-c3ccco3)c12` was 211 to 213 °C; that for `CSc1ccc(CN2CCNCC2)cc1` was 53 to 55 °C.
The same measure for `O=C(O)c1ccccc1OCc1ccccc1Br`: 129 to 131 °C.
The value for `CC(C)COc1ccc(-c2nn(-c3ccccc3)cc2C=O)cc1` was 100 to 102 °C.
In the case of `NCc1cccc(NC(=O)Cn2cccn2)c1`, the melting point lay in the range of 113 to 115 °C.
The same measure for `Cc1cc(C(=O)O)c(N)s1`: 126 to 128 °C; for `Cc1ccc(N)cc1N1CCOC1=O`: 130 to 132 °C; for `COc1cc(Cl)ccc1C(=O)NN`: 178 to 180 °C.
In turn, `CCCCc1ccc(NC(=O)/C=N/O)cc1` registered a melting point of 120 to 122 °C.
The value for `Cc1ccc(Cn2nc(C)c(/C=C/C(=O)O)c2C)cc1` was 161 to 163 °C.
As to `Cc1n[nH]c2cc(N)ccc12`, the melting point fell in the range of 189 to 191 °C.
The same measure for `Nc1cc(Cl)c(-c2cc(Cl)c(N)cc2Cl)cc1Cl`: 135 to 140 °C; for `Cc1cc(Br)ncc1N`: 54 to 56 °C.
For `CC(=O)NCc1ccc(-c2nc(N)sc2C)s1`, the melting point lay within 154 to 156 °C.
The same measure for `Cc1nc2scc(C)n2c1C=O`: 153 to 155 °C; for `COc1ccccc1C1(C(=O)O)CCC1`: 149 to 151 °C; for `C/C(=N\O)c1scnc1C`: 144 to 146 °C.
Regarding `Cc1ccc(NC(=O)C(=O)O)cc1`, the melting point lay within 170 to 172 °C.
`CCc1nnc(CO)n1C` returned a melting point of 41 to 43 °C.
`O=C(O)CSc1nccs1` registered a melting point of 151 to 153 °C.
The value for `CN(CC(=O)O)C1CC1` was 101 to 103 °C; that for `O=C(Nc1ccc(F)cc1)C1CCc2ccccc2N1` (configuration not stated) was 115 to 117 °C.
The compound `O=C1Nc2ccccc2C1=NO` registered a melting point of 242 to 244 °C.
The value for `O=C(O)CC1=NN(c2ccc(Cl)cc2Cl)C(=O)C1` was 179 to 181 °C; that for `Cc1cccc(C#N)n1` was 70 to 72 °C.
The same measure for `Nc1ccc(-c2nc3cc(Br)ccc3s2)cc1`: 189 to 191 °C; for `CCC(C)C(NC(N)=O)C(=O)O` (configuration not stated): 205 to 207 °C; for `O=C(O)CS(=O)(=O)Cc1ccc(Br)cc1`: 156 to 158 °C.
The value for `NS(=O)(=O)Cc1ccc(CO)cc1` was 118 to 120 °C; that for `COC(=O)c1ccc(NC(C)=O)c(C)c1` was 132 to 134 °C; that for `Nc1c([N+](=O)[O-])cc(F)c(F)c1Br` was 104 to 106 °C.
Regarding `CN(C)S(=O)(=O)c1ccc(=O)[nH]c1`, the melting point lay within 212 to 216 °C.
The same measure for `NNC(=O)CO`: 90 to 92 °C; for `Cc1ccc(N(C)S(=O)(=O)c2cccc(C(=O)O)c2)cc1`: 162 to 164 °C; for `NCc1ccccc1NS(=O)(=O)c1ccccc1`: 188 to 190 °C.
Turning to `SC1=Nc2ccccc2CS1`, the melting point lay within 149 to 151 °C.
The value for `CC(C)(C)OC(=O)N1CCCC(COCC(=O)O)C1` (configuration not stated) was 74 to 76 °C; that for `CC(=O)NC(CC(N)=O)C(=O)O` (configuration not stated) was 168 to 170 °C; that for `CN1C(=O)CCC(CO)C1c1cccc(Cl)c1` (configuration not stated) was 122 to 124 °C.
The value for `Cn1c(O)nnc1S` was 216 to 218 °C; that for `Cn1c(=O)c2c(ncn2CCCC(=O)O)n(C)c1=O` was 167 to 169 °C; that for `CS(=O)(=O)c1cc(S(=O)(=O)Cl)c(Cl)s1` was 124 to 126 °C.
The same measure for `Cc1cc(Cl)nc(-c2cccnc2)n1`: 70 to 72 °C; for `NC(=S)COc1ccc(Cl)cc1`: 107 to 111 °C; for `Cc1cccc(-c2nc(CC(=O)O)cs2)c1`: 110 to 112 °C.
Consider `CN(c1ccccc1)c1ccccc1C(=O)O`, for which the melting point was in the range of 105 to 107 °C.
The same measure for `Nc1cccc2c1C(=O)N(Cc1ccccc1)C2=O`: 147 to 149 °C.
`CC(C)NO` returned a melting point of 73 to 75 °C.
The same measure for `CN(C)C1(C(=O)O)CCCSC1` (configuration not stated): 196 to 198 °C; for `CCc1cc(=O)[nH]c(-c2cccc(N)c2)n1`: 139 to 141 °C.
Regarding `Oc1ccc(-c2cscn2)cc1`, the melting point was 146 to 148 °C.
Compound `Cc1c(C(=O)O)oc2c(Cl)cc(Br)cc12` came in with a melting point of 272 to 274 °C.
The same measure for `CCOC(=O)c1sc(N)c(C#N)c1CBr`: 206 to 208 °C; for `O=C(O)c1ccnc(OC2CCOC2)c1` (configuration not stated): 109 to 111 °C.
For the compound `CNC(=O)c1ccc(N)cc1Cl`, the melting point lay within 147 to 149 °C.
The value for `Cc1c(C(=O)O)[nH]c2c1C(=O)CC(C)(C)C2` was 206 to 208 °C; that for `O=c1[nH]c(CCl)nc2sc3c(c12)CCC3` was 230 to 238 °C; that for `COC(=O)COc1ccc([N+](=O)[O-])c2ccccc12` was 141 to 143 °C.
The compound `CCC(=O)NN` had a melting point of 24 to 26 °C.
For the compound `Cc1ccc(-n2cnnn2)cc1NC(=O)OCC(F)(F)F`, the melting point is 199 to 201 °C.
Compound `Cc1cncc(N)c1` had a melting point of 59 to 63 °C.
`COc1ccc(C2C(C(=O)O)CCC(=O)N2C)cc1` (configuration not stated) displayed a melting point of 213 to 215 °C.
The value for `COc1ccc(S(=O)(=O)Cl)cc1NC(C)=O` was 145 to 147 °C; that for `O=C(O)CCc1ccc(S(=O)(=O)Cl)cc1` was 157 to 159 °C; that for `CCCOc1ccc2ccccc2c1C=O` was 65 to 68 °C.
The same measure for `CN(C)C(=O)N1CCC(C(=O)O)CC1`: 146 to 148 °C.
As to `COc1ccc(C=C[N+](=O)[O-])cc1Cl`, the melting point was in the range of 95 to 97 °C.
Regarding `COc1ccccc1NS(=O)(=O)c1cccc(N)c1`, the melting point was 35 to 37 °C.
In the case of `Nc1ccc(N2CCCC2=O)c(Cl)c1`, the melting point was in the range of 184 to 186 °C.
The same measure for `Clc1cc(C2=NCCN2)ccn1`: 165 to 167 °C; for `Cc1ccc(-c2csc(NC(=O)CCl)n2)cc1C`: 179 to 181 °C; for `CC(C)OCc1c(C(=O)O)oc2ccccc12`: 131 to 133 °C.
The value for `Cc1c(-c2csc(N)n2)sc2ccccc12` was 170 to 172 °C; that for `N#Cc1ccc(S)c(F)c1` was 59 to 61 °C.
In turn, `CC(=O)N1CCN(c2ccc(C(=O)O)cc2[N+](=O)[O-])CC1` registered a melting point of 262 to 264 °C.
The same measure for `CCCOc1ccc(Cl)cc1C(=O)O`: 59 to 61 °C; for `COCc1cccc(C(=O)O)c1`: 64 to 66 °C; for `O=C1COc2ccc(C(=O)O)cc2N1`: 228 to 230 °C.
On to `Nc1ccc(C(=O)N2CCC(CO)CC2)cc1`, for which the melting point lay in the range of 138 to 140 °C.
Take `Cc1cc2c(Cl)nccc2o1`: the melting point was 38 to 40 °C.
The same measure for `Nc1cc(F)c([N+](=O)[O-])cc1C(=O)O`: 249 to 251 °C.
For `OCCCc1nc2ncccn2n1`, the melting point is 76 to 78 °C.
Regarding `COc1ccc(OC)c(C(C)NC(=O)CCl)c1` (configuration not stated), the melting point lay in the range of 103 to 105 °C.
